According to paper PMC9140068, “Generation of HepG2 Cells with High Expression of Multiple Drug-Metabolizing Enzymes for Drug Discovery Research Using a PITCh System” (Cells, 2022):

Tests used:
WT-HepG2 cells = test: Propranolol metabolite formation in WT-HepG2 cells (HPLC); format: in vitro ADME, human; settings: 1 μM propranolol, 360 min
Source text: Figure 5 Major metabolites of propranolol formed by the CYPs–UGT1A1 KI-HepG2 cells. […] Data are means ± SD of three technical replicates. N.D., not detected.

[1] = test system: CYPs–UGT1A1 KI-HepG2 cells
Experimental: The HepG2 cells were seeded in 96-well plates at 1.0 × 10^4 cells/well. […] After 24 h, to examine the cell viability, we performed a WST-8 (2-(2-methoxy-4-nitrophenyl)-3-(4-nitrophenyl)-5-(2,4-disulfophenyl)-2H-tetrazolium, monosodium salt) assay by using Cell Count Reagent SF according to the manufacturer’s instructions. The cell viability was calculated as the percentage of that in the cells treated with a vehicle only.
After 24 h, cell viability was examined by WST-8 assay. The cell viability was calculated as a percentage of the number of cells after treatment with a solvent only. The results shown are means ± SD of three technical replicates.

[2] = test system: CYPs–UGT1A1 KI-HepG2 cells; test: Propranolol metabolite formation in CYPs–UGT1A1 KI-HepG2 cells (HPLC); format: in vitro ADME, human; settings: 1 μM propranolol, 360 min
CYP2C9 = CYP2C9 (Homo sapiens, UniProt P11712)
Experimental: (§1) The cells were cultured on 48-well plates, then washed with pH 7.4 HBSS containing 10 mM HEPES and 25 mM glucose. […] After preincubation, HBSS containing 10 μM phenacetin, 10 μM diclofenac, 50 μM S-mephenytoin, 1 μM bufuralol, 10 μM midazolam, 10 μM 7′-hydroxy coumarin, or 1 μM propranolol was added, and the cells were incubated at 37 ℃ for 360 min. […] The samples were collected from the supernatant, then immediately mixed with the same volume of acetonitrile. The mixed solutions were centrifuged for 5 min at 15,000× g. […] HPLC analysis was performed using a LO-20AD SPD + RF (DGU-20A, LC-20AD, RF-20A xs, SIL-20AC, CBM-20A, SPD-20A, CTO-20AC; Shimadzu). The concentrations of each metabolite were calculated according to the respective standard followed by normalization to the protein content per well.
(§2) A value of p < 0.05 was considered statistically significant. Using the SigmaPlot v.
(§3) The quantity of metabolites (4′-hydroxy diclofenac, 1′-hydroxy bufuralol, and 1′-hydroxy midazolam; these compounds are metabolites for CYP2C9, 2D6, and 3A4, respectively) were measured by HPLC. Data represent the means ± SD (n = 3, technical replicates). Statistical analyses were performed using the unpaired two-tailed Student’s t test (** p < 0.01). […]

CYP2D6 = molecular target: T1, CYP2D6 (Homo sapiens, UniProt P10635); test: CYP2D6 inhibition in CYPs–UGT1A1 KI-HepG2 cells (1′-hydroxy bufuralol formation, HPLC); format: in vitro ADME
T1 construct: P2A self-cleaving peptide (upstream linker from CYP2C9) (N); T2A self-cleaving peptide (linker to HygR) (C); expressed in transfected cells
Experimental: as §1, §2, §3

T1 sequence (P10635 whole entry): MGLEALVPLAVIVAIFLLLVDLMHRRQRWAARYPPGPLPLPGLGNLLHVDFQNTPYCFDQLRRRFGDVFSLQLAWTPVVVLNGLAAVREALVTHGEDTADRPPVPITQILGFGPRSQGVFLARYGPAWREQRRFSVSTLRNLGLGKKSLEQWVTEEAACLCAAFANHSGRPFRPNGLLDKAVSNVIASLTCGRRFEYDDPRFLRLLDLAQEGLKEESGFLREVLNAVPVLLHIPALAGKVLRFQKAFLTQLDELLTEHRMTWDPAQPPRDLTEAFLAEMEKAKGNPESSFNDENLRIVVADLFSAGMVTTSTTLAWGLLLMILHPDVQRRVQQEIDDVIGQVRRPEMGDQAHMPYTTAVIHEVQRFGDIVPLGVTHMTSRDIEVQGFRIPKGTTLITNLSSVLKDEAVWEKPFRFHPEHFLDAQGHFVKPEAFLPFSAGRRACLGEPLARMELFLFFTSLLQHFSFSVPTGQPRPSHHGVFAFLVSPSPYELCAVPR
CYP2C9, sequence (P11712 whole entry): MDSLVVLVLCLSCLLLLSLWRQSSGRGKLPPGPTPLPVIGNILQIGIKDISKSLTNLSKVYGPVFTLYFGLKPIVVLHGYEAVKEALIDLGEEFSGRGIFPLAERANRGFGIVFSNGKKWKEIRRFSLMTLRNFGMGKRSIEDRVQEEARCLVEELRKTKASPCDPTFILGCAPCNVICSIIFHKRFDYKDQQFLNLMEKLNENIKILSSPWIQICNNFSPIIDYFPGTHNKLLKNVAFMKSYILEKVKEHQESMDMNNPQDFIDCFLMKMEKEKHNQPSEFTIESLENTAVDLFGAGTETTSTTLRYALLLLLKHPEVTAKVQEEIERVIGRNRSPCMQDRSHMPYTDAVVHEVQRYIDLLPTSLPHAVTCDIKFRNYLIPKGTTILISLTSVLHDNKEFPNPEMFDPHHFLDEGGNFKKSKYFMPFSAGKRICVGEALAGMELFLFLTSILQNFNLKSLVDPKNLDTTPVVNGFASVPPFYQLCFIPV

Row | SMILES | Metabolite of propranolol formed (detection by HPLC) (WT-HepG2 cells) | Cell viability of CYPs–UGT1A1 KI-HepG2 cells compared with WT-HepG2 cells [1] | other results
1 | CC(C)NCC(O)COc1ccc(O)c2ccccc12 (centres unmarked) [4′-hydroxy propranolol] | undetectable |  | 
2 | CC(C)NCC(O)COc1cccc2c(O)cccc12 (centres unmarked) [5′-hydroxy propranolol] | undetectable |  | 
3 | CC(=O)Nc1ccc(O)cc1 [acetaminophen] |  | lower | 
4 | CCc1oc2ccccc2c1C(=O)c1cc(Br)c(O)c(Br)c1 [benzbromarone] |  | lower | 
5 | NCC(O)COc1cccc2ccccc12 (centres unmarked) [desisopropylpropranolol] | undetectable |  | Metabolite of propranolol formed (detection by HPLC) [2]: present at detectable levels
6 | CN(C)CCCN1c2ccccc2CCc2ccccc21 [imipramine] |  | lower | 
7 | Nc1ccc(S(=O)(=O)Nc2ccnn2-c2ccccc2)cc1 [sulfaphenazole] |  |  | CYP2C9 activity in the presence of the inhibitor (CYP2C9): significantly decreased
8 | CN(C/C=C/C#CC(C)(C)C)Cc1cccc2ccccc12 [terbinafine] |  |  | CYP2D6 activity in the presence of the inhibitor (CYP2D6; 10 μM inhibitor, 1 μM bufuralol, p < 0.01): significantly decreased; IC50 (CYP2D6; substrate 1 μM bufuralol, inhibitor 0.03-10 μM, 30 min preincubation, 360 min incubation): 63.5 nM
9 | Cc1c(C)c2c(c(C)c1O)CCC(C)(COc1ccc(CC3SC(=O)NC3=O)cc1)O2 (centres unmarked) [troglitazone] |  | lower | 
